Where “and” joins values, the source holds several entries; their conditions need not be identical. Identical values can stand only once.
What was measured:
HL-60 = assay: MTT growth inhibition, HL-60 cells, 72 h; assay type: cell-based; conditions: Homo sapiens, HL-60, MTT
Protocol: (§1) 5000 well-grown leukemia cells were taken and seeded into wells of a 96-well cell culture plate. The medium was 1640 cell medium containing 10% fetal bovine serum. 14-D-Valine-TPL with different concentrations was added, and after being uniformly mixed, the plate was placed in a carbon dioxide (5% CO2) cell incubator, and incubated at 37° C. for 72 hours. The concentration of live cells was then determined using the MTT assay. In this experiment, the cell viability in the control group (without the compound treatment) was set to be 100%, and the cell viability (%) after the action of the compound and the half maximal growth inhibitory concentration of leukemia cells at 72 hours (IC50 value at 72 hours) were calculated.

[1] = Body weight and organ examination of tumour-bearing mice; assay type: in vivo, NOD/SCID mice; conditions: for Body weight: mice bearing KG-1a and THP-1, 14 days, individual mice, listed as DV
Protocol: (§2) 7-week old female NOD/SCID mice were taken and inoculated subcutaneously with 1×10^7 cells (0.2 ml) per mouse in axilla, with human acute myelogenous leukemia KG-1a cells on the left and human acute monocytic leukemia THP-1 cells on the right. When tumors grew to a tumor size of around 0.5 cm, the mice were randomized into groups with 3 mice each. An equivalent amount of PBS was used for the control group, and the 14-D-Valine-TPL group was divided into two groups with 0.2 mg/kg body weight and 0.4 mg/kg body weight: intragastric administration 2 times a day (one at 8 a.m. and one at 4 p.m.) for consecutive 14 days of treatment. An observation was made for total 30 days, during which the conditions of the mice such as tumor size, weight, activity, diet, and the like were measured. At the end of the experiment, the mice were sacrificed, tumor tissues were taken and the tumors were weighed, and major organs and tissues of the mice such as liver, spleen, heart, lung, large intestine, small intestine, and the like were examined.
as §2, with “the left.” for “the left and human acute monocytic leukemia THP-1 cells on the right.”, “around 50-100 mm^3,” for “around 0.5 cm,”, “the TPL-LLV” for “the 14-D-Valine-TPL”, “with 0.23” for “with 0.2”, “and 0.46” for “and 0.4”, “intragastric administration,” for “intragastric administration”
as §2, with “the left.” for “the left and human acute monocytic leukemia THP-1 cells on the right.”, “around 50-100 mm^3,” for “around 0.5 cm,”, “the TPL-DLV” for “the 14-D-Valine-TPL”, “with 0.23” for “with 0.2”, “and 0.46” for “and 0.4”, “intragastric administration,” for “intragastric administration”
7-week old female NOD/SCID mice were taken and inoculated subcutaneously with 1×10^7 cells (0.2 ml) per mouse in axilla, with human acute myelogenous leukemia KG-1a cells on the left. When tumors grew to a tumor size of around 50-100 mm^3, the mice were randomized into groups with 3 mice each. An equivalent amount of PBS was used for the control group, and the TPL-DLV group was divided into two groups with 0.32 mg/kg body weight and 0.64 mg/kg body weight: intragastric administration, 2 times a day (one at 8 a.m. and one at 4 p.m.) for consecutive 14 days of treatment. An observation was made for total 30 days, during which the conditions of the mice such as tumor size, weight, activity, diet, and the like were measured. At the end of the experiment, the mice were sacrificed, tumor tissues were taken and the tumors were weighed, and major organs and tissues of the mice such as liver, spleen, heart, lung, large intestine, small intestine, and the like were examined. […]

Sup-B15 = assay: MTT growth inhibition, Sup-B15 cells, 72 h; assay type: cell-based, human
Protocol: (§3) 5000 well-grown leukemia cells or normal human blood cells were taken and seeded into wells of a 96-well cell culture plate. The medium was 1640 cell medium containing 10% fetal bovine serum. 14-D-Valine-TPL with different concentrations was added, and after being uniformly mixed, the plate was placed in a carbon dioxide (5% CO2) cell incubator, and incubated at 37° C. for 72 hours. The concentration of live cells was then determined using the MTT assay. In this experiment, the cell viability in the control group (without the compound treatment) was set to be 100%, and the cell viability (%) after the action of the compound the half maximal growth inhibitory concentration of leukemia cells at 72 hours (IC50 value at 72 hours) and the therapeutic window index were calculated. Therapeutic window index=IC50 value of normal blood cells/IC50 value of leukemia cells. […] A larger therapeutic window indicates a better selectivity of the compound for tumor cells.
as §1
as §1, with “well-grown lymphocytes” for “well-grown leukemia cells”

CEM = assay: MTT growth inhibition, CEM cells, 72 h; assay type: cell-based, human
Protocol: as §3, §1
as §1, with “well-grown lymphocytes” for “well-grown leukemia cells”

c-myc = assay: Immunoblot of c-myc level in K562 cells, 48 h; assay type: cell-based, human; conditions: 80 nM
Protocol: Well-grown leukemia cells were taken and seeded into wells of a 6-well cell culture plate, with a density of 1×10^6/ml. The medium was 1640 cell medium containing 10% fetal bovine serum. 14-D-Valine-TPL with different concentrations was added, and after being uniformly mixed, the plate was placed in a carbon dioxide (5% CO2) cell incubator, and incubated at 37° C. for 48 hours. Cellular proteins were then extracted, and the immunoblot technique was used to detect the expression level of c-myc.

Jurkat = assay: MTT growth inhibition, Jurkat cells, 72 h; assay type: cell-based, human
Protocol: as §3, §1
as §1, with “well-grown lymphocytes” for “well-grown leukemia cells”

CC(C)[C@@H](N)C(=O)O[C@@H]1[C@@]2(C(C)C)O[C@H]2[C@@H]2O[C@]23[C@]12O[C@H]2C[C@H]1C2=C(CC[C@@]13C)C(=O)OC2 [14-D-Valine-TPL, 14-Dextro-Valine-Triptolide]
IC50 (HL-60): 65.8 nM
weight loss in the mice (in words) ([1]; dose of 0.4 mg per kilogram of the body weight): no significant weight losses
Body weight ([1]; 0.2 mg/kg intragastric 2 times a day, mice bearing KG-1a xenografts): 18.5 g and 20.2 g and 19.9 g and 18.1 g and 19.0 g and 20.4 g
Body weight ([1]; 0.2 mg/kg intragastric 2 times a day, mice bearing THP-1 xenografts): 18.5 g and 20.2 g and 19.9 g and 18.1 g and 19.0 g and 20.4 g
Body weight ([1]; 0.4 mg/kg intragastric 2 times a day, mice bearing KG-1a xenografts): 20.4 g and 21.0 g and 21.1 g and 21.4 g and 20.8 g and 19.1 g
Body weight ([1]; 0.4 mg/kg intragastric 2 times a day, mice bearing THP-1 xenografts): 20.4 g and 21.0 g and 21.1 g and 21.4 g and 20.8 g and 19.1 g
anatomical examination of major organs (heart, lung, liver, spleen, large intestine, small intestine) ([1]; mice of Example 9): no significant abnormalities
IC50 (Sup-B15; Homo sapiens, SUP-B15, 72 h): 20.7 nM
Therapeutic window (Sup-B15; IC50 of normal blood cells/IC50 of Sup-B15): 9.73
IC50 (CEM; Homo sapiens, CCRF-CEM, 72 h): 25.5 nM
Therapeutic window (CEM; IC50 of normal blood cells/IC50 of CEM): 7.89
level of c-myc (immunoblot) (c-myc): significantly inhibited
IC50 (Jurkat; Homo sapiens, Jurkat, 72 h): 36.3 nM
Therapeutic window (Jurkat; IC50 of normal blood cells/IC50 of Jurkat): 5.54
